In patent US20230147962A1, “FIBROBLAST ACTIVATION PROTEIN LIGANDS FOR TARGETED DELIVERY APPLICATIONS” (PHILOCHEM AG, priority 2020, published 2023):
*1 amine or outer side, *2 acyl side, *3 side chain or, on linkers, in order; H or OH if unused. Where a SMILES comes first, the peptide text is derived from it. The star is where a group is joined. Fluorescein(5-Mal) = O=C1OC2(c3ccc(O)cc3Oc3cc(O)ccc32)c2ccc(N3C(=O)CC(*)C3=O)cc21; X1 = N#C[C@@H]1CC(F)(F)CN1C(=O)CNC(=O)c1ccnc2c(N*)cccc12; Suc = O=C(CCC(=O)[*:2])[*:1]

How the values were obtained:
SK-RC-52 Wild type = experiment: Confocal microscopy on SK-RC-52 wild type; format: cell-based; conditions: negative control cells
Experimental: (§1) SK-RC-52.hFAP and SK-RC-52 cells were seeded into 4-well cover slip chamber plates at a density of 10^4 cells per well in RPMI medium (1 mL) supplemented with 10% FCS, AA and HEPES (10 mM) and allowed to grow for 24 hours under standard culture conditions. Hoechst 33342 nuclear dye was used to stain nuclear structures.
(§2) The culture medium was replaced with fresh medium containing conjugate 15 (100 nM). Randomly selected colonies imaged on a SP8 confocal microscope equipped with an AOBS device (Leica Microsystems).

hFAP = biological target: T1, hFAP (Homo sapiens, UniProt Q12884); experiment: Affinity measurement to human FAP by fluorescence polarization; format: binding; conditions: binder 10 nM, read-out: KD to hFAP
T1 construct: made in house; host or cells: CHO cells, transient gene expression, purified from supernatant
T1 sequence (Q12884 with tags, fused parts or gaps): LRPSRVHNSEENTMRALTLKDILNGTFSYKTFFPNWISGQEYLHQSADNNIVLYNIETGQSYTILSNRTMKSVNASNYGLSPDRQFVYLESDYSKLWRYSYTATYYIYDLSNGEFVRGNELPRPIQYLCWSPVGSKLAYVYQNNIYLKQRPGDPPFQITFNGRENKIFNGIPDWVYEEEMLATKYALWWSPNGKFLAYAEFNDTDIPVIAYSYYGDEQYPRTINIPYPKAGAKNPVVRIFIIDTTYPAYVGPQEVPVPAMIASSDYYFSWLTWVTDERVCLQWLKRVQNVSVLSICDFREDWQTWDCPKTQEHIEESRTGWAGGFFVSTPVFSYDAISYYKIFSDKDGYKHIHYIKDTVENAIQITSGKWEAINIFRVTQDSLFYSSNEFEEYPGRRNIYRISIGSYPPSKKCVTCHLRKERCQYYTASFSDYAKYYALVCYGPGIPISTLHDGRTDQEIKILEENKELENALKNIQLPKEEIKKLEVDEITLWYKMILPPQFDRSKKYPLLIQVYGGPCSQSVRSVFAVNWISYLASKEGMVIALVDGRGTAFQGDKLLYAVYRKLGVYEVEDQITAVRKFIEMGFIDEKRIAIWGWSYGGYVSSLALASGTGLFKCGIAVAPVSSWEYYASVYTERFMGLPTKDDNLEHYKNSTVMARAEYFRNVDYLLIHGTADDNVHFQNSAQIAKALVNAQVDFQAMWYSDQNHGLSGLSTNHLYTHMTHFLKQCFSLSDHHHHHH
Experimental: Fluorescence polarization measurements were performed in 384-well plates (non-binding, ps, f-bottom, black, high volume, 30 μL final volume). A stock solution of human FAP (4 μM) was serially diluted with buffer (50 mM Tris, 100 mM NaCl, 1 mM EDTA, pH=7.4), while the final concentration of the binders was kept constant at 10 nM. The measurements were carried out after incubating for 30 min at 37° C. in the dark by fluorescent polarization (FIG. 4).
Fluorescence polarization experiments were performed in 384-well plates (non-binding, ps, f-bottom, black, high volume, 30 μL final volume). Stock solutions of human FAP (4 μM) and murine FAP (5 μM) were serially diluted with buffer (50 mM Tris, 100 mM NaCl, 1 mM EDTA, pH=7.4), while the final concentration of the binders was kept constant at 10 nM. The fluorescence anisotropy was measured on a TECAN microtiter plate reader. Experiments were performed in triplicate and the mean anisotropy values fitted using Prism 7.

SK-RC-52.hFAP [1] = experiment: FACS analysis on SK-RC-52 wild type and SK-RC-52.hFAP; format: cell-based; conditions: 10 nM
Experimental: (§3) SK-RC-52.hFAP, SK-RC-52.wt, HT-1080.wt and HT-1080.hFAP were detached from culture plates using Accutase, counted and suspended to a final concentration of 1.5×10^6 cells/mL in a 1% v/v solution of FCS in PBS pH 7.4. […] Cells were washed once with 200 μL 1% v/v solution of FCS in PBS pH 7.4 (200 μL), spun down, resuspended in a 1% v/v solution of FCS in PBS pH 7.4 (300 μL) and analyzed on a CytoFLEX cytometer (Beckman Coulter). The raw data were processed with the FlowJo 10.4 software.

SK-RC-52.hFAP [2] = experiment: Confocal microscopy on SK-RC-52.hFAP; format: cell-based; conditions: t=0 and 1 h
Experimental: as §1, §2

HT-1080.hFAP [3] = experiment: FACS analysis on HT-1080 wild type and HT-1080.hFAP; format: cell-based; conditions: 10 nM
Experimental: as §3

HT-1080.hFAP [4] = experiment: Confocal microscopy on HT-1080.hFAP; format: cell-based; conditions: t=0 and 1 h
Experimental: HT-1080.hFAP and HT-1080 cells were seeded into 4-well cover slip chamber plates at a density of 10^4 cells per well in DMEM medium (1 mL) supplemented with 10% FCS, AA and HEPES (10 mM) and allowed to grow for 24 hours under standard culture conditions. Hoechst 33342 nuclear dye was used to stain nuclear structures.
as §2

For `N#C[C@@H]1CC(F)(F)CN1C(=O)CNC(=O)c1ccnc2c(NC(=O)CCC(=O)N[C@@H](CC(=O)O)C(=O)N[C@@H](CCCCN)C(=O)N[C@@H](CC(=O)O)C(=O)N[C@@H](CSC3CC(=O)N(c4ccc5c(c4)C(=O)OC54c5ccc(O)cc5Oc5cc(O)ccc54)C3=O)C(=O)O)cccc12` (stereo partly drawn) [Conjugate 15, (2R,5S,8S,11S)-8-(4-aminobutyl)-5,11-bis(carboxymethyl)-16-((4-((2-((S)-2-cyano-4,4-difluoropyrrolidin-1-yl)-2-oxoethyl)carbamoyl)quinolin-8-yl)amino)-2-(((1-(3′,6′-dihydroxy-3-oxo-3H-spiro[isobenzofuran-1,9′-xanthen]-5-yl)-2,5-dioxopyrrolidin-3-yl)thio)methyl)-4,7,10,13,16-pentaoxo-3,6,9,12-tetraazahexadecanoic acid] ({X1-Suc}-DKDC(Fluorescein(5-Mal))-OH), the “accumulation on SK-RC-52 Wild type cells” value (SK-RC-52 Wild type) was “no accumulation on the cell membrane”, the Kd (hFAP) was 680 pM and the “cellular binding, SK-RC-52 Wild type vs SK-RC-52.hFAP” value (SK-RC-52.hFAP [1]) was “FAP-specific cellular binding”. The “accumulation on SK-RC-52.hFAP cells” value (SK-RC-52.hFAP [2]) was “accumulation of conjugate 15 on the cell membrane”, the “cellular binding, HT-1080 Wild type vs HT-1080.hFAP” value (HT-1080.hFAP [3]) was “FAP-specific cellular binding” and the “accumulation on HT-1080.hFAP cells” value (HT-1080.hFAP [4]) was “accumulation of conjugate 15 on the cell membrane and inside the cytosol”.
